# From patent publication US7732611B2, “Amine salt of carbostyril derivative” (Otsuka Pharmaceutical Co., Ltd., priority 2004, dated 2010)
# Assays:
# [1] = Water-solubility test at 25° C. of the isolated salts (HPLC); format: physicochemical; settings: shaken 3 hours (5 days for meglumine salt), filtered, concentration of Compound A by HPLC
# Experimental: Preparation of the Test Solution
# After shaking, the mixture was filtered through a 0.45 μm membrane filter (0.2 μm for meglumine salt). 1 mL of the filtrate was precisely pipetted and thereto was added 50% DMF so as to be totally 50 mL in precise. 2 mL of this solution was precisely pipetted and thereto was added 50% DMF so as to be totally 20 mL in precise to give a sample solution.
# Preparation of the Standard Solution
# Using each 10 μL of the sample solutions and the standard solutions, the liquid chromatographic analyses were carried out in the following conditions.
# [2] = Solubility test at 25° C. of the salt in a preparation prepared when used without isolating the salt (HPLC); format: physicochemical; settings: water, Compound A plus equimolar amine, salt not isolated, shaken 7 days, 0.2 μm filter
# Experimental: And then as to a sample to which arginine was added, the suspension was filtered through a 0.2 μm membrane filter. […] And then the mixture was filtrated through a 0.2 μm membrane filter. According to the same method as Example 8, the solubilities (%) of each salt was measured by HPLC.
structure (smiles),measurement,setting,value
"CC(O)CNCC(C)O.O=C(NC(Cc1cc(=O)[nH]c2ccccc12)C(=O)O)c1ccc(Cl)cc1 (centres unmarked) [Compound A·diisopropanolamine salt, 2-(4-chlorobenzoylamino)-3-(2-quinolon-4-yl)propionic acid.diisopropanolamine salt]",Solubility (%),[1],2.9%
same,Solubility (%),[2],>7.4%
